Measured values: patent publication US20210363254A1, “PHARMACEUTICAL COMBINATIONS” (Novartis AG, priority 2018, published 2021)

What was measured:
[1] = test system: immune cells in Colon 26 tumors; test: Immune profiling of Colon 26 tumors and draining lymph nodes by flow cytometry (7628 and 8063 Colon 26-XPD); format: in vivo, mouse; details: 40 mg/kg every 3h for 3 times on days 0 and 7
Description: HDM201 modulated profiles of immune cells in Colon 26 tumors. Increases in % CD11c^+/CD45^+ myeloid cells (A), % CD8^+/CD45^+ T cells (B), PDL1 MFI in CD45^− cells (C), and % PD1^+/CD45^+ lymphocytes (d). Colon 26 cells were implanted into the right flank of Balb/c mice. When tumors reached ˜60 mm^3, mice were randomized and treated with HDM201 at 40 mg/kg every 3h for 3 times on days 0 and 7. Mice were euthanized, and tumors were collected and processed for FACS analysis on Days 5 and 12 post first dose.
HDM201 modulated profiles of immune cells in Colon 26 tumors. Increases in % CD103^+CD11c^+ DCs (A), % Tbet*EOMES-CD8+/CD45^+ T cells (B), and CD8/Treg ratio (C). Colon 26 Cells were implanted into right flank of Balb/c mice. When tumors reached ˜100 mm^3, mice were randomized and treated with HDM201 at 40 mg/kg every 3h for 3 times on days 0 and 7. Mice were euthanized; tumors and draining lymph nodes were collected and processed for FACS analysis on Days 5 and 12 post first dose.
Colon 26 cells were harvested at 80-95% confluence, washed, and re-suspended in cold PBS at a concentration of 2×10^6 cells/ml. Finally, 0.2×10^6 cells in a total volume of 100 μL were implanted subcutaneously (sc) into the upper right flank of naive Balb/c mice.
The tumor infiltrating lymphocytes (TILs) from tumors were analyzed by flow cytometry for both studies ([…] Colon 26-XPD and 8063 Colon 26-XPD). Lymph node lymphocytes were analyzed for 8063 Colon 26-XPD. The samples were plated into two separate 96 well plates, one for T cell staining (Table Ex3.5) and one for myeloid cell staining (Table Ex3.6).
For Study 7628 Colon26-XPD, tumors and spleens were collected from mice on Day 5 and Day 12 post initiation of treatment. Single cell suspensions were generated according to RDS-2016-00163. Briefly, the tissues were minced with scissors followed by mechanical homogenization in dissociation buffer containing RPMI 1640 (Gibco, Life Technologies) with Liberase™ research grade collagenase (Roche) and DNase 1 recombinase (Roche) using the GentleMAX (Miltenyi). Following a 15 minute incubation at 37° C. in a water bath, the homogenates were quenched with 10% FBS and filtered on a […] cell strainer (Falcon). At the end of this process, the single cell suspension of cells was obtained and 2 million cells were plated into 96-well plates for staining with either a T cell or myeloid cell panel of antibodies.
For Study 8063 Colon 26-XPD, tumors and lymph nodes were collected and then processed both mechanically and enzymatically into a single cell suspension according to RDS-2017-00141. The digestion process involves 4-5 consecutive digestion cycles with new digestion buffer containing DNase I (Roche), Collagenase P (Roche), and dispase (Gibco) in each cycle. At the end of this process, cell suspension was filtered on a […] cell strainer to obtain single cell suspension. Two million cells were plated into 96 well plates for staining of T cell panel or myeloid cell panel antibodies.
Following this, the samples were blocked with a 1:50 dilution of mouse Fc block (Miltenyi Biotec) for 30 minutes on ice. The samples were spun for 5 minutes at 1500 rpm and then stained with a fluorochrome-conjugated surface antibody mix as shown in Table Ex3.5 and Ex3.6 for 60 minutes. During the blocking and staining procedures, cells were maintained at 4° C. and protected from light.
For intracellular staining of T cells, after surface staining, the plates were spun again for 5 minutes at 1500 rpm, and then the cells were fixed and permeabilized overnight using a fix/perm kit (eBioscience). The cells were washed with a permeabilization buffer and then stained with the intracellular antibodies for 1 hour at 4° C. in the dark. The plates were washed twice in permeabilization buffer and suspended in 200 μl PBS. Data acquisition was performed using the LSRFortessa™ (BD Biosciences).
Analysis was performed after each run using FLOWJO v10.0.7 software from Treestar. […]

[2] = test system: human SJSA-1 (osteosarcoma) xenograft; test: TGI PK/PD modelling, human SJSA-1 (osteosarcoma) xenograft rat; format: in vivo; details: human SJSA-1 xenograft rat; for Average concentration for tumor stasis: TGI PK/PD modelling
Description: To further support the preferred dose for HDM201, compartmental PK modeling was used to estimate the individual average concentration per cycle for the 9 patients treated at 120 mg on regimen 1B (FIG. 15). For the majority of patients (7 out of 9), the estimated average drug concentrations per cycle were near or above the most conservative average tumor stasis concentration of ˜41 ng/mL per cycle determined from PKPD modeling of preclinical data (human SJSA-1 xenograft rat model).
Compartmental population PK modeling of NVP-HDM201 was used to estimate the individual average plasma concentration for Cycle 1 and to allow comparison with preclinical average concentration for tumor stasis derived by PK/PD tumor growth modeling. […] The dashed line at concentration of ≈19 ng/mL represents average tumor stasis determined from PK/PD modeling of preclinical data from a liposarcoma (HSAX2655) patient-derived xenograft rat model.

[3] = test system: AH1-specific CD8+ T cells; test: Anti-tumor memory T cell responses: IFN-γ ELISPOT with AH1 peptide and H2Ld-AH1 dextramers on splenocytes; format: cell-based, mouse
Excerpt: Consistent with this, we observed an increase in frequency of AH1-specific CD8^+ T cells in spleens of mice treated with HDM201 or combination of HDM201 with anti-PD1 antibody induced responders as detected by H2Ld-AH1 dextramers. (FIGS. 28 and 29).

Structure (SMILES): COc1ncc(-c2nc3c(n2C(C)C)[C@H](c2ccc(Cl)cc2)N(c2cc(Cl)cn(C)c2=O)C3=O)c(OC)n1 [HDM201, (S)-5-(5-Chloro-1-methyl-2-oxo-1,2-dihydro-pyridin-3-yl)-6-(4-chloro-phenyl)-2-(2,4-dimethoxy-pyrimidin-5-yl)-1-isopropyl-5,6-dihydro-1H-pyrrolo[3,4-d]imidazol-4-one]
- % CD103+CD11+ DCs [1]: increased
- % PD1+CD45+ cells [1]: increased
- CD8/Treg ratio [1]: increased
- PDL1 expression (MFI) in CD45− cells [1]: induced
- newly primed % Tbet+EOMES−CD8+/CD45+ T cells [1]: increased
- % CD11C+CD45+ cells in tumors ([1]; Days 5 and 12): increased
- CD8 T cells in tumors ([1]; Days 5 and 12): increased
- Average concentration for tumor stasis [2]: ~41 ng/mL
- Average concentration for tumor stasis ([2]; listed as NVP-HDM201): ≈ 41 ng/mL
- average concentration for 95% tumor regression [2]: 120 ng/mL
- average concentration for 95% tumor regression ([2]; listed as NVP-HDM201): 125 ng/mL
- frequency of AH1-specific CD8+ T cells in spleens (H2Ld-AH1 dextramers) ([3]; responder mice): increase
- antigen-specific production of IFN-γ by T cells (ELISPOT) ([3]; splenocytes of responder mice stimulated with AH1 peptide): detected in all responders
